These results are taken from EP4389150A1, “CONJUGATE COMPOUNDS AND THEIR USE IN CANCER TREATMENT AND DIAGNOSIS” (Technische Universität München, priority 2022, dated 2024).

“Also recorded” adds a separate entry of the source.

As a reminder, the IC50 is the concentration that inhibits the measured activity by half. Read a low IC50 as inhibition by little substance. As usually defined, the logD is lipophilicity at a set pH, counting ionised and neutral species. Low readings indicate a more hydrophilic compound, high ones a more lipophilic compound. Broadly, the viability is the share of living cells, or the viability signal relative to a control.

One data set relates to LNCaP cells. Kind of data set: Binding and internalization (cell uptake) of 68Ga-labelled PSMA ligands in LNCaP cells. It is filed as cell-based. Here is the method: To determine ligand internalization, LNCaP cells were seeded in a 96 V-bottom well plate at a density of 100,000 cells/well in 5% BSA (w/v)/RPMI medium (100 µL/well) and incubated for 30 min at 37 °C. Afterwards, solutions (25 µL/well) of either 5% BSA (w/v)/RPMI medium or of 2-PMPA (final concentration: 10 µM) in 5% BSA (w/v)/RPMI medium for blockade were added. Then, a solution of the ^68Ga-labeled PSMA-ligand (25 µL/well; 0.4 nM final concentration; AM = 26-30 MBq/nmol) was added to all wells, and the cells were incubated for 5, 15, 30, and 60 min, respectively, at 37 °C. Hereby, each time point was performed in triplicates and each experiment was repeated three times. The internalization process was terminated by placing the plate for 5 min on ice. The free radioligand was obtained by centrifugation of the plate at 600 g for 3 min and removal of the supernatant. Each well was then washed with ice-cold PBS and the fractions of the first two steps were combined. For removal of cell-bound PSMA-ligand, the cells were treated in a next step with ice-cold 2-PMPA-solution (10 µM in PBS; 150 µL/well; 15 min on ice), centrifuged (600 g, 3 min), and washed with ice-cold PBS (150 µL/well). The fractions were again combined. For the analysis of internalized radioligand, the fractions of a 1.0 N NaOH (150 µL/well; 10 min on ice) treatment as well as a concomitant washing step with 1.0 N NaOH (150 µL/well) were pooled. Free, surface bound, and internalized activity, respectively, was measured in a γ-counter.

The next data set can be described thus: Serum stability. It is filed as in vitro ADME. The settings on record: 37 °C; for stable (intact) after incubation in human serum: 2 hours; for intact after incubation in human serum: 24 hours. The protocol: For serum stability analysis, 13.5 µL human serum were mixed with 1.5 µL of an aqueous solution of the test compound (200 µM final concentration) and incubated at 37 °C for 0.5, 1, 2, and 24 h, respectively. Afterwards, 25.0 µL MeCN were added, the suspension was centrifuged (14,000 rpm, 30 min, 4 °C), the supernatant was recovered, and finally analyzed by HPLC-ESI-MS using a linear elution gradient from 10 to 95% (v/v) MeCN/0.1% (v/v) TFA in water/0.1% (v/v) TFA for 15 min.

The test system of data set [1] is PC3-PIP/PC3-flu bilateral tumor model. The format is in vivo, Athymic nude mice.
Description: In vivo experiment. Athymic nude mice were subcutaneously injected with 4×10^6 PC3-PIP (PSMA+) and 3×10^6 PC3-Flu (PSMA-) cells to produce a bilateral tumor model.
At the completion of the imaging study, mice were euthanized and organs were resected, weight, and analyzed by gamma counting to determine tracer biodistribution. Data are ported as percentage of injected activity per gram of tissue (%IA/g).
At the completion of the imaging study, mice were euthanized and organs were resected, weighted, and analyzed by gamma counting to determine tracer biodistribution. Biodistribution data are reported as percentage of injected dose per gram of tissue (%ID/g).
For a further data set, the target named is T1, PSMA (Homo sapiens, UniProt Q04609).
T1 construct: endogenous in cells; host or cells: LNCaP cells
Kind of data set: IC50 determination by competition with [68Ga]-PSMA-617 on LNCaP cells. The format is binding. The settings on record: [68Ga]-PSMA-617 0.4 nM, 60 min on ice, natGa-labelled ligands. Here is the method:
In the meantime, dilution series of the compounds were prepared in 1% BSA (w/v)/HBSS in a separate 96 U-bottom deep well plate ranging from 12 µM to 153.6 pM in 1:5 dilution steps. Next, solutions (25 µL/well) of either 1% BSA (w/v)/HBSS (control) or of the respective dilution series were transferred to the LNCaP cells containing plate. Hereby, each concentration was pipetted in triplicates and each experiment was repeated three times. Subsequently, [^68Ga]-PSMA-617 (25 µL/well; 0.4 nM final concentration; AM = 26-30 MBq/nmol) in 1% BSA (w/v)/HBSS was added to all wells and the plate was incubated for 60 min on ice. Afterwards, the experiment was terminated by centrifugation at 600 g for 3 min and removal of the supernatant. The cells were then washed with ice-cold HBSS (150 µL/well), centrifuged (600 g, 3 min), and the supernatant as well as the washing fraction were combined, representing the amount of free, unbound radioligand. Bound radioligand was obtained by lysis of the cells with 1.0 N NaOH (150 µL/well; 10 min on ice). Afterwards, the plate was washed a second time with 1.0 N NaOH (150 µL/well). Hereby, the washing step was combined with the NaOH fraction. The quantification of bound and free radioligand was finally accomplished via measuring the samples in a γ-counter.

Data set [2] is described as follows: Lipophilicity, n-octanol/PBS distribution coefficient. The settings on record: pH 7.4. The format is physicochemical. The protocol:
Lipophilicity of the conjugates was determine after radiolabeling with ^68Ga. The PSMA ligand (0.80 MBq) was dissolved in PBS (500 µL/pH 7.4) in a reaction vial (1.5 mL; n = 10). Afterwards, n-octanol was added (500 µL) and the mixture was rigorously vortexed for 3 min. Subsequent centrifugation (Biofuge 15, Heraus Sepatech, Osterode, Germany) at 13,000 rpm for 5 min led to a phase separation. After measuring 100 µL of each phase in a γ-counter, the distribution coefficient (logD(O/PBS)) was calculated with Microsoft Excel.

The next data set deals with PSMA+ (LNCaP). Kind of data set: Cell viability (Alamar Blue), monotherapy, PSMA+ cells. It is filed as cell-based. The settings on record: 72h. Here is the method:
(§1) Black, clear-bottom 96 well culture plates were coated with poly-L-lysine. Afterwards, the plates were washed with PBS (1 × 100 µL), cells were seeded (2000 cells/well for PC3, 10000 cells/well for LNCaP), and cultured for 24 h (PC3) or 48 h (LNCaP) at 37 °C. The culture medium was removed, and new culture medium containing 10 mM GSH-OEt was added and incubated for 1 h at 37 °C. After removal of the GSH-OEt medium, new culture medium containing the PSMA-Ruc conjugates was added. After 72 h of incubation at 37 °C, cells were treated with Alamar Blue for visualization of cell viability. […] Each data points represents one biological replicate.

A further data set deals with PSMA- (PC3). Kind of data set: Cell viability (Alamar Blue), monotherapy, PSMA- cells. The format is cell-based. The settings on record: PC3, 20 µM, 72h, pretreated with 10 mM GSH; read-out: cell viability compared to untreated cells. Here is the method: as §1
The next data set relates to mCRPC. Particulars: TRITON2 trial, Abida et al., 2020; cited from earlier work.
The subject of data set [3] is PC3-PIP cells / PC3-flu cells. The data set is described as follows: Fluorescence microscopy of Ruc delivery in PSMA+ and PSMA- cells. It is filed as cell-based. Particulars: PSMA+ PC3-PIP versus PSMA- PC3-flu cells (Figure 4A). Here is the method: For microscopic analysis, black clear-bottom 96 well cell culture plates with cover-glass bottom (µ plate 96 well black; ibidi) were coated with poly-L-lysine (0.01% (w/v) in sterile water). Cells were seeded at a density of 20-40,000 cells/well and cultured for 24 h at 37 °C. Subsequently, the PSMA ligands (1 µM; 100 µL/well) were directly added with or without blocking and ligand treatment was accomplished for 5, 60 or 180 min at 37 °C, while in case of GSH preincubation, GSH-OEt (10 mM; 100 µL/well) was applied for 1 h at 37 °C prior to ligand treatment. For the latter case, the PSMA ligands (1 µM, 100 µL/well) were added after removal of the GSH containing medium and the incubation time was 60 min at 37 °C. Afterwards, cells were washed with PBS (2×) and fixed with 4% (w/v) PFA in PBS for 8 min at RT (pH 7.4, 100 µL/well). CellMask™ Green Plasma Membrane Stain was used to stain the cell membrane, whereas for cell nuclei DRAQ5™ was used. Before imaging, cells were washed with PBS (3×) and mounted in PBS (150 µL/well). Finally, cells were imaged using an EVOS M7000 microscope (Thermo Fisher Scientific).

For data set [4] the following is noted: Wilson et al. 2019; cited from earlier work.
The next data set concerns late stage mCRPC. The settings on record: late stage mCRPC patients, versus 11.3 months with standard therapy; Sartor et al., 2021; cited from earlier work.

T1 sequence (Q04609 whole entry): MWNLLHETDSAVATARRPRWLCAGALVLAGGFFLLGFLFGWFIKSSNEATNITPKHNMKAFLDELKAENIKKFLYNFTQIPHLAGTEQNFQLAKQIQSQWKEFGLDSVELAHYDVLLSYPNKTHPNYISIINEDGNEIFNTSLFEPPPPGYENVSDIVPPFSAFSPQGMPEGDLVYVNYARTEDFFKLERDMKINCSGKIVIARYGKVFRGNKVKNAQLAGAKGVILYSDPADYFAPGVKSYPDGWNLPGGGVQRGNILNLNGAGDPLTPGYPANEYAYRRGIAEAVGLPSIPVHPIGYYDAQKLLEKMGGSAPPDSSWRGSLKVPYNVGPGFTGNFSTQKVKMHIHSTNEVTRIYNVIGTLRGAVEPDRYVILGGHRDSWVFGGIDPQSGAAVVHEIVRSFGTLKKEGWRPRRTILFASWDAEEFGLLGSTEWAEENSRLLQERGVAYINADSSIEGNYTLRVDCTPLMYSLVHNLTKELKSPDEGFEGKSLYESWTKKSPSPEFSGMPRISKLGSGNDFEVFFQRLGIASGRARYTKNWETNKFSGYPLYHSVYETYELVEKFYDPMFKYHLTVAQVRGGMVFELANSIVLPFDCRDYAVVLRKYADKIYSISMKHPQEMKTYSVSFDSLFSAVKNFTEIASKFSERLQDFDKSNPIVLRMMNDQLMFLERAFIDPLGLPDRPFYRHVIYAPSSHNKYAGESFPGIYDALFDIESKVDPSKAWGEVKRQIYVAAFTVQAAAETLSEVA

As to `CN(Cc1ccc(-c2[nH]c3cc(F)cc4c3c2CCNC4=O)cc1)C(=O)CCSSCCC(=O)NCCCC[C@@H](NC(=O)CCC(C(=O)O)N1CCN(CC(=O)O)CCN(CC(=O)O)CCN(CC(=O)O)CC1)C(=O)N[C@H](CC(=O)O)C(=O)N[C@H](Cc1ccc(O)cc1)C(=O)N[C@H](Cc1ccccc1)C(=O)N[C@@H](Cc1ccc2ccccc2c1)C(=O)NCCCCCC(=O)NCCCC[C@H](NC(=O)N[C@@H](CCC(=O)O)C(=O)O)C(=O)O` (single isomer, unassigned) [Conjugate 11], the “% bound of total applied dose” value in the data set on LNCaP cells was 6.45 ± 1.16%. Moreover, in “Serum stability”, the “stable (intact) after incubation in human serum” value was found to be 93% and the “intact after incubation in human serum” value was 74%. Moreover, the biodistribution profile result in data set [1] (68Ga-labelled, 1 h post-injection) was “uptake limited to PSMA-expressing tumors and kidneys”. Besides, in data set [1] (PSMA+ PC3-PIP versus PSMA- PC3-Flu tumors, 60 min p.i.), the “tumor uptake (PET/CT, biodistribution)” value is “uptake in PSMA+ PC3-PIP tumors and no accumulation in PSMA- PC3-Flu tumors”. This molecule had an IC50 on PSMA of 5.34 ± 1.45 nM. In data set [2], the logD is -3.11 ± 0.08.

In the case of `CN(Cc1ccc(-c2[nH]c3cc(F)cc4c3c2CCNC4=O)cc1)C(=O)CCCCCCC(=O)NCCCC[C@@H](NC(=O)CCC(C(=O)O)N1CCN(CC(=O)O)CCN(CC(=O)O)CCN(CC(=O)O)CC1)C(=O)N[C@H](CC(=O)O)C(=O)NCCC(=O)NC[C@H]1CC[C@H](C(=O)N[C@@H](Cc2ccc3ccccc3c2)C(=O)NCCCC[C@H](NC(=O)N[C@@H](CCC(=O)O)C(=O)O)C(=O)O)CC1` (stereo partly drawn) [Conjugate 13, DOTAGA-n-Lys(Ruc-Sub)-n-Asp-β-Ala-TXA-L-Nal-KuE], in the data set on LNCaP cells, the “% bound of total applied dose” value is given as 10.8 ± 2.07%. Besides, in “Serum stability”, the “stable (intact) after incubation in human serum” value amounted to 94% and the “intact after incubation in human serum” value amounted to 89%. The molecule further displayed an IC50 at PSMA of 0.67 ± 0.09 nM. In addition, the cytotoxic effects entry in the data set on PSMA+ (LNCaP) (20 µM) is “did not show cytotoxic effects”. In addition, in data set [2], the logD is -2.58 ± 0.05.

For `CNCc1ccc(-c2[nH]c3cc(F)cc4c3c2CCNC4=O)cc1` [Ruc, Rucaparib], the viability at 20 µM with PSMA- (PC3) was 30 to 50%. Also, in the data set on mCRPC, the “patients with a partial response” value is reported as 30-40% and the “patients with an objective response” value was 44%. Moreover, in data set [3], the “localization of Ruc fluorescence” value is “localized in the cell nucleus of PSMA-expressing and non-expressing cells non-selectively; also recorded: non-selective uptake in PSMA+ and PSMA- cells”. Also, in the data set with PSMA+ (LNCaP) (Homo sapiens, pretreated with 10 mM GSH, read-out: cell viability compared to untreated cells), the viability at 20 µM lay in the range of 30 to 50%.

`O=C(c1cc(Cc2n[nH]c(=O)c3ccccc23)ccc1[18F])N1CCN(C(=O)C2CC2)CC1` [^18F-Olaparib]: the “typical biodistribution of PARPi” value in data set [4] is “low tumor uptake and high gut uptake”.

In the case of `O=C([O-])CN1CCN(CC(=O)[O-])CCN(CC(=O)NCC2CCC(C(=O)N[C@@H](Cc3ccc4ccccc4c3)C(=O)NCCCC[C@H](NC(=O)N[C@@H](CCC(=O)O)C(=O)O)C(=O)O)CC2)CCN(CC(=O)[O-])CC1.[177Lu+3]` (some centres unmarked) [^177Lu-PSMA-617], the median overall survival in the data set with late stage mCRPC was 15.3 months.
